One test addresses DfrB (Staphylococcus aureus, UniProt P0A017). In kind it is biochemical. The conditions noted are these: read-out: KM, DHF, NADPH saturation 100 μM.
Test [1] addresses T1, DfrK (Staphylococcus aureus, UniProt C7C2U7). Conditions: read-out: KM, DHF, NADPH saturation 100 μM.
The target in the next test is DfrA (Staphylococcus aureus, UniProt P13955). Put plainly: biochemical. In kind it is biochemical.
Test [2] addresses T2, DfrG (Staphylococcus aureus, UniProt Q4H3Y3). Conditions: read-out: KM, DHF, NADPH saturation 100 μM.
For test [3], the target named is human DHFR isoform (HuDHFR) (Homo sapiens, UniProt P00374). The conditions noted are these: read-out: KM, DHF, NADPH saturation 100 μM.
Chain of human DHFR isoform (HuDHFR) (P00374 whole entry, canonical isoform): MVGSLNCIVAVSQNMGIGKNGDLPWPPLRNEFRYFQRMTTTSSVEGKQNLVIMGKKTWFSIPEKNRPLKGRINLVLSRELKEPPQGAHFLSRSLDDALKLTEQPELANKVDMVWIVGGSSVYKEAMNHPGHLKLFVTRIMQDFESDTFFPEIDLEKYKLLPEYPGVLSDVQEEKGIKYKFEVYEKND
Test [4] addresses T2, DfrG. Put plainly: biochemical.
Another test deals with UCH115 (dfrA). Put plainly: MIC, broth dilution, dfrA clinical isolate. In kind it is cell-based. The conditions noted are these: Staphylococcus aureus, 18 h, read-out: Minimum Inhibitory Concentrations.
The next test deals with HH1184 (dfrK). As to the kind of experiment: MIC, broth dilution, dfrK clinical isolate. It is filed as cell-based, Staphylococcus aureus. The conditions noted are these: for Minimum Inhibitory Concentrations: HH1184 (dfrK), 18 hour, 37°C, isosensitest broth; for MIC: Staphylococcus aureus, 18 h, read-out: Minimum Inhibitory Concentrations.
In a further test the test system is UCH121 (dfrG). As to the kind of experiment: MIC, broth dilution, dfrG clinical isolate. In kind it is cell-based, Staphylococcus aureus. The conditions noted are these: for MIC: Staphylococcus aureus, 18 h, read-out: Minimum Inhibitory Concentrations; for Minimum Inhibitory Concentrations: UCH121 (dfrG), 18 hour, 37°C, isosensitest broth. (In general: In broth dilution the organism is exposed to a series of concentrations in liquid medium.)

Another test concerns HepG2. Put plainly: Mammalian cytotoxicity, Alamar Blue. It is filed as cell-based. Conditions: Homo sapiens, HepG2, 4 h, read-out: Mammalian Toxicity IC50. (In general: Alamar Blue is a resazurin reagent that responds to reducing activity.)
A further test relates to MCF10A. As to the kind of experiment: Mammalian cytotoxicity, Alamar Blue. It is filed as cell-based. The conditions noted are these: Homo sapiens, MCF-10A, 4 h, read-out: Mammalian Toxicity IC50.
Test [5] deals with T1, DfrK. Put plainly: biochemical. Conditions: Enzymatic inhibition, Table 4, average of three experiments ±SD.

Converted amounts (≈) assume the structure as drawn. “And” between values parts separate entries of the source, which are not always exact repeats. Identical values can stand only once.

Chain of DfrA (P13955 whole entry): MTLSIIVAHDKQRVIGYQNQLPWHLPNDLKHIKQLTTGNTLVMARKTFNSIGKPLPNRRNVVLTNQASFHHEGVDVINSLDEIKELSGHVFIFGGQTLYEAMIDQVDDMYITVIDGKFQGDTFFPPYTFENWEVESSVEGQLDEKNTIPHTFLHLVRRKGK
Chain of DfrB (P0A017 whole entry): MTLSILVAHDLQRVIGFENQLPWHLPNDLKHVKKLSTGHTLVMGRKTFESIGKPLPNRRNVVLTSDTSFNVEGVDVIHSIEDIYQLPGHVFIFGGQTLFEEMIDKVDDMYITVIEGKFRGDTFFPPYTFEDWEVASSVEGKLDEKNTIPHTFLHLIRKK

With `Nc1nc(=O)c2c([nH]1)NCC(CNc1ccc(C(=O)N[C@@H](CCC(=O)O)C(=O)O)cc1)=N2` [DHF, dihydrofolate], the Km on DfrB is 13.3 µM and 13.4 µM; at DfrK [1] it was 11 µM; at DfrA (read-out: KM, DHF, DfrA, NADPH saturation 100 μM), 5.76 µM; at DfrG [2], 8.87 µM and 8.9 µM; in [3] it was 10.5 µM.

With `COc1cc(Cc2cnc(N)nc2N)c2c(c1OC)OC(C1CC1)C=C2` (stereo not shown) [Iclaprim, iclaprim], the Ki (commonly the dissociation constant of the complex between target and ligand, obtained from inhibition or displacement) at DfrG [4] worked out at 1350 ± 10 nM; on DfrA, 90 ± 3 nM. For the same compound, the MIC was 64 µg/mL (≈ 181 µM) with UCH115 (dfrA), over 250 µg/mL with HH1184 (dfrK) and over 250 µg/mL in the test with UCH121 (dfrG). In addition, the “Minimum Inhibitory Concentrations” value in the test on HH1184 (dfrK) and in the test on UCH121 (dfrG) was over 250 µg/mL throughout.

On to `CN(Cc1cnc2nc(N)nc(N)c2n1)c1ccc(C(=O)N[C@@H](CCC(=O)O)C(=O)O)cc1` [Methotrexate], for which the IC50 in the test with HepG2 and in the test on MCF10A was over 200 µg/mL throughout. Also, the inhibitory constant (Ki) at DfrG [4] stood at 1.8 ± 0.1 nM; on DfrA it was 0.38 ± 0.04 nM; on DfrK [5] it was 2.5 ± 0.1 nM. The MIC in the test with UCH115 (dfrA), in the test on HH1184 (dfrK) and with UCH121 (dfrG) was over 250 µg/mL throughout.

Turning to `COc1cc(Cc2cnc(N)nc2N)cc(OC)c1OC` [Trimethoprim, trimethoprim], the MIC with UCH115 (dfrA) was 250 µg/mL (≈ 861 µM); in the test with HH1184 (dfrK), over 1000 µg/mL; with UCH121 (dfrG), over 1000 µg/mL. Further, the “Minimum Inhibitory Concentrations” value in the test on HH1184 (dfrK) and in the test with UCH121 (dfrG) was over 1000 µg/mL in each case.

(Values after paper PMC7025792 (ACS infectious diseases, 2019).)
